Results published in patent US4803208A, “Opiate agonists and antagonists” (Sloan-Kettering Institute For Cancer Research, priority 1985, dated 1989).
Where a name gives a salt, the structure may show the parent alone. Read-outs that look alike come from different tables or passages of the source.

Legend:
opiate receptors [1] = target: T1, opiate receptors (Rattus norvegicus, UniProt P33535); test: biochemical; type: binding; settings: for inhibition at 2 µM: 0.5 h, read-out: Change in Binding (Percent), [^3 H]dihydromorphine
T1 construct: Rat brain homogenates were prepared as described; from tissue; host or cells: rat brain homogenate / membranes
Experimental: Results are from a single experiment which has been replicated three times.
(§1) In brief, brain membranes were prepared and triplicate samples incubated with [^3 H] labelled ligands and designated drugs for 30 minutes at 25° C., followed by filtration over Whatman GF/B filters. […] Specific binding is defined as the difference in binding in the presence and absence of levallorphan (1 uM). […] Each tissue wash included incubation for 10 min. at 37° C., centrifugation and resuspension. Irreversibility experiments included four washes before binding assays were performed, unless otherwise stated.
(§2) To determine which compounds did irreversibly bind to the receptor, membranes were incubated with the various drugs (2 μM) and then the free and reversibly bound drug washed away (Table 2).
(§3) Rat brain membranes were prepared and incubated with the above drugs (2 μM) for 30 min at 25° C. and the tissue was then washed four times as described in the text to remove reversibly bound material. The results represent the means ±s.e.m. of three separate experiments utilizing [^3 H]D-ala^2 -D-leu^5 -enkephal in (1 nM) and [^3 H]dihydromorphine (0.8 nM). […] After 15 min the solution was added to tissue.
After incubating membranes with the specified drug, the membranes were extensively washed and a binding assay with [^3 H]dihydromorphine performed.

[2] = Reaction of hydrazones to azines in solution; settings: acidic aqueous solutions; absolute ethanol or water/acetic acid (1%), 15 min
opiate receptors [3] = type: binding, rat; settings: for Change in Binding (Percent), [^3 H]D-ala^2 -D-leu^5 -enkephalin: compound 2 μM, 30 min 25° C., four washes, ligand 1 nM, mean ± s.e.m. of three experiments
Experimental: as §1, §2, §3

mice [4] = test: In vivo actions of naltrexone-oxymorphonazine (tailflick latencies); design: species or system mouse
Experimental: Groups of mice were injected subcutaneously with the stated drug and latencies in the tailflick test determined and compared to those obtained prior to testing. […] This compares with an analgesic rate of 100% of animals receiving oxymorphone HCl in other control experiments.

opiate receptors [5] = test: Irreversible inhibition of ^3 H-DADL binding, 100 nM, two washes; design: species or system rat
Experimental: (§4) Each wash consisted of centrifugation, incubation at 37° for 10 min and centrifugation again. […] Bindig was then performed with either ^3 H-D-ala^2 -D-leu^5 -enkephalin (DADL) or ^3 H-dihydromorphine (DHM) both at 1 nM. Specific binding was determined as that displaceable by levallorphan at 1000 nM. All values represent the means of triplicate samples ±S.E.M.

opiate receptors [6] = test: Irreversible opiate receptor binding/blocking (general statements)
Experimental: as §1

opiate receptors [7] = target: T1, opiate receptors; test: Irreversible inhibition of ^3 H-DHM binding, 100 nM, two washes
Experimental: as §4

prolactin release = test: Prolactin release in vivo; settings: prolactin and growth hormone
growth hormone release = test: Growth hormone release in vivo; settings: prolactin and growth hormone
Duration of action = type: in vivo; settings: compared to conventional / currently available opiates
mice [8] = test: Oxymorphonazine analgesia in vivo (Tail-Flick Assay); design: species or system mouse; settings: 25 μg in 5 μl of artificial CSF; for Analgesia (percent), 20 hr.: groups differ p<0.015, Fisher's Exact Test
Experimental: Mice were injected with either oxymorphone or oxymorphonazine (both 25 μg in 5 μl of artificial CSF) under Ethrane/oxygen anesthesia and tested for analgesia at the stated time. Analgesia was determined by Tail-Flick Assay. Quantal criteria, the doubling of the baseline latency for each individual animal, was used. At 20 hours, the oxymorphone and oxymorphonazine groups differed from each other at p<0.015 level, as determined by Fisher's Exact Test.

T1 sequence (P33535 whole entry): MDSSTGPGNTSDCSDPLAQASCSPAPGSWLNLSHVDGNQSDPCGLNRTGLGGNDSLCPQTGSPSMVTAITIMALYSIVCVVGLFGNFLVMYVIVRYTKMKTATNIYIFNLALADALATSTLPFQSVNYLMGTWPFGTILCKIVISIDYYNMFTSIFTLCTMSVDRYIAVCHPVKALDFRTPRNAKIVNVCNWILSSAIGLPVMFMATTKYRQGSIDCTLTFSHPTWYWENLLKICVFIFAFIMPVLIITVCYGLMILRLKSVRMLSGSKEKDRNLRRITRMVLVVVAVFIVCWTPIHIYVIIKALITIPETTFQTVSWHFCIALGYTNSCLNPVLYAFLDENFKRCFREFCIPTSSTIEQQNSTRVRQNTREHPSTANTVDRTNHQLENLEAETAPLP

Q: For `CN1CCC23c4c5ccc(O)c4OC2C(=NN)CCC3(O)C1C5` (stereo not shown) [Oxymorphazone, oxymorphazone], which “irreversible inhibition of [^3 H]dihydromorphine binding (in words)” value (opiate receptors [1]; 2 μM, various concentrations in b75 (FIG. 2)) is on record?
A: The value was “neither naloxazone nor oxymorphazone irreversibly inhibited the binding”.

Q: And the inhibition at 2 µM (opiate receptors [1]; compound 2 μM, 30 min 25° C., four washes, ligand 0.8 nM, mean ± s.e.m. of three experiments)?
A: Its inhibition at 2 µM is -3%.

Q: And the “stability in solution: reaction to azine (in words)” value [2]?
A: The value was “no azine formation could be detected”.

Q: What about the “irreversible inhibition of [^3 H]D-ala^2 -D-leu^5 -enkephalin binding (in words)” value (opiate receptors [3]; 2 μM) of the same compound?
A: Its value is “neither naloxazone nor oxymorphazone irreversibly inhibited the binding”.

Q: And the “Change in Binding (Percent), [^3 H]D-ala^2 -D-leu^5 -enkephalin” value (from here on “Change in Binding (Percent)”) (opiate receptors [3])?
A: The value was 43% ± 24.

Q: For `CN1CCC23c4c5ccc(O)c4OC2C(=NN=C2CCC4(O)C6Cc7ccc(O)c8c7C4(CCN6CC4CC4)C2O8)CCC3(O)C1C5` (stereo not shown) [Naltrexone-oxymorphonazine, naltrexone-oxymorphonazine], which “Tailflick Latencies, After 20 min” value (mice [4]; 10 mg/kg s.c., after 20 min) is on record?
A: The value was 2.20 ± 0.35 s.

Q: And the “Tailflick Latencies, After 40 min” value (mice [4]; 10 mg/kg s.c., after 40 min)?
A: Its value is 2.29 ± 0.31 s.

Q: And the “Tailflick Latencies, Prior” value (mice [4]; baseline prior to 10 mg/kg s.c.)?
A: The value was 2.44 ± 0.32 s.

Q: What about the “animals analgesic (in words)” value (mice [4]; doubling of baseline latencies, 10 mg/kg s.c.) of the same compound?
A: The value was “none of the animals receiving the mixed azine (naltrexone-oxymorphonazine) were analgesic”.

Q: And the “action in vivo (in words)” value (mice [4]; in vivo tests of mixed agonist/antagonist compounds)?
A: Its value is “act as antagonists”.

Q: What about the “^3 H-DADL Binding” value (opiate receptors [5]; 30 min 25° C., DADL 1 nM, control 1800 ± 53 cpm, triplicate ± S.E.M.) of the same compound?
A: The value was 1205 ± 157 cpm.

Q: And the “^3 H-DADL Binding, change” value (opiate receptors [5]; vs control, 30 min)?
A: The value was -33%.

Q: What about the “irreversible inhibition of opiate receptor binding / activity (in words)” value (opiate receptors [6]) of the same compound?
A: The value was “appear to irreversibly bind the opiate receptors”.

Q: What about the “^3 H-DHM Binding” value (opiate receptors [7]; 100 nM, 30 min 25° C., two washes, DHM 1 nM, control 3447 ± 273 cpm, triplicate ± S.E.M.) of the same compound?
A: The value was 1487 ± 120 cpm.

Q: And the inhibition at 0.1 µM (opiate receptors [7]; 0.5 h, read-out: ^3 H-DHM Binding, change)?
A: The inhibition at 0.1 µM was 57%.

Q: With `CN1CC[C@]23c4c5ccc(O)c4O[C@H]2C(=O)CC[C@@]3(O)[C@H]1C5` [oxymorphone HCl] as the compound, how does the analgesic rate (mice [4]; other control experiments) read?
A: Its analgesic rate is 100%.

Q: What does the source list for `CN1CC[C@]23c4c5ccc(O)c4O[C@H]2[C@@H](O)C=C[C@H]3[C@H]1C5` [Morphine, morphine]?
A: hormone release by morphine (in words) (prolactin release): releases both hormones; irreversible inhibition of opiate receptor binding / activity (in words) (opiate receptors [6]): show no irreversible inhibition; hormone release by morphine (in words) (growth hormone release): releases both hormones

Q: For `CN1CCC23c4c5ccc(O)c4OC2C(=NN=C2CCC4(O)C6Cc7ccc(O)c8c7C4(CCN6C)C2O8)CCC3(O)C1C5` (stereo not shown) [Oxymorphonazine, oxymorphonazine], which “duration of action (in words)” value (Duration of action) is on record?
A: Its value is “lasting far longer than conventional opiates”.

Q: What about the inhibition at 2 µM (opiate receptors [1]) of the same compound?
A: The inhibition at 2 µM was 71 ± 4%.

Q: And the “Analgesia (percent), 1 hr.” value (mice [8])?
A: Its value is 100%.

Q: And the “Analgesia (percent), 4 hr.” value (mice [8])?
A: Its value is 100%.

Q: And the “Analgesia (percent), 10 hr.” value (mice [8])?
A: The value was 100%.

Q: What about the “Analgesia (percent), 20 hr.” value (mice [8]) of the same compound?
A: Its value is 44%.

Q: And the “potency of irreversible block of opiate binding in vitro relative to corresponding hydrazone” value (opiate receptors [6]; azine vs corresponding hydrazone)?
A: The value was 20-40 fold.

Q: What about the “Change in Binding (Percent)” value (opiate receptors [3]) of the same compound?
A: Its value is -59 ± 3%.

Q: For `C=CCN1CCC23c4c5ccc(O)c4OC2C(=NN=C2CCC4(O)C6Cc7ccc(O)c8c7C4(CCN6CC=C)C2O8)CCC3(O)C1C5` (stereo not shown) [Naloxonazine, naloxonazine], which “duration of action (in words)” value (Duration of action) is on record?
A: The value was “in the order of days”.

Q: What about the “duration of action (in words)” value (Duration of action; listed as naloxonazine) of the same compound?
A: Its value is “lasting far longer than conventional opiates”.

Q: What about the “dose reproducing the irreversible blockade of opiate receptor binding by naloxazone” value (opiate receptors [6]; low doses) of the same compound?
A: The value was 50 nM.

Q: What about the “eliminated [^3 H]D-ala^2 -D-leu^5 -enkephalin binding” value (opiate receptors [3]; 2 uM, 30 min) of the same compound?
A: The value was “over 90%”.

Q: And the “Change in Binding (Percent)” value (opiate receptors [3])?
A: Its value is -93% ± 4.

Q: For `CN1CC[C@]23c4c5ccc(O)c4O[C@H]2C(=O)CC[C@@]3(O)[C@H]1C5` [Oxymorphone, oxymorphone], which “Analgesia (percent), 1 hr.” value (mice [8]) is on record?
A: The value was 100%.

Q: What about the “Analgesia (percent), 4 hr.” value (mice [8]) of the same compound?
A: The value was 78%.

Q: What about the “Analgesia (percent), 10 hr.” value (mice [8]) of the same compound?
A: Its value is 33%.

Q: And the “Analgesia (percent), 20 hr.” value (mice [8])?
A: The value was 0%.

Q: What about the “removal of reversible ligand by washing (in words)” value (opiate receptors [6]; two washes with incubation at 37° for 10 min) of the same compound?
A: The value was “effectively removed”.
